# From US8852657B2, “Chromones as therapeutic agents” (Unigen, Inc., priority 2007, dated 2014)
# Test system: high fat diet induced C57BL/6J mice
# Experiment: Intraperitoneal glucose tolerance test, UP780 dose-range study
# Assay type: in vivo, mouse
# Conditions: week 3 of daily oral treatment; 30, 60 and 90 minutes; UP780 200 mg/kg, GW1929 5 mg/kg
# Description: Once an induction of the disease on animals after 8 weeks of high fat diets was confirmed by monitoring of selected parameters, daily oral treatment was initiated. On each day, the test articles and the positive control GW1929 (Tocris Bioscience, Ellisville, Mo., Batch #2A/58705) were dissolved in 0.5% methylcellulose (Sigma, St. Louise Mo., Lot#116H0857) and delivered at an oral dose of 100, 200 and 400 mg/kg of UP780 (Lot # L1806QMAW-01); 400 mg/kg of Qmatrix® Aloe vera gel powder (QM400, Lot# G6319103-L3) as well as 5 mg/kg of GW1929. As GW1929 was not completely solublized in methylcellulose, it was first dissolved in DMSO (Sigma, St. Louis, Mo., Batch#064K0067). The final concentration of test compounds, including the vehicle, was then adjusted to contain 5% DMSO before drug administration. The carrier vehicle treated animals received 0.5% methylcellulose only. No detectable sign of irritation was observed after each drug or vehicle administration. […]
# An intraperitoneal glucose tolerance test was conducted on day 0 (baseline), weeks 3, and 9 after onset of treatment. […] Blood glucose levels were determined at time 0 (before glucose injection), 30, 60, 90, and 120 minutes post glucose delivery. […] Blood glucose levels were determined at time 0 (before insulin injection), 30, 60, 90, and 120 minutes after insulin administration. […]
structure (smiles),measurement,value
"CN(CCOc1ccc(C[C@H](Nc2ccccc2C(=O)c2ccccc2)C(=O)O)cc1)c1ccccn1 [GW1929, N-(2-Benzoylphenyl)-O-[2-(methyl-2-pyridinylamino)ethyl]-L-tyrosine]",glucose clearance in intraperitoneal glucose tolerance test vs vehicle,statistically significant glucose clearance
